Measurements: US6537545B1, “Use of corneal hardening agents in enzymeorthokeratology” (ISTA Pharmaceuticals, Inc., priority 1998, dated 2003)

Experiments:
Assay type in all cases: in vivo
[1] = system: Dutch Belted rabbit corneas; experiment: Histopathologic examination of harvested corneas (Example 1); conditions: rabbits; eyes harvested Study Day 58
Description: The animals were sacrificed and their eyes were harvested on Study Day 58. The animals in the study were euthanised using an intravenous injection of pentobarbital (2 mg/kg). The eyes of the animals were enucleated immediately after sacrifice using Castro-Viejo scissors. The corneas of the eyes were then removed and placed on the end of a glass tube and cut in half. These samples were then snap frozen in liquid nitrogen. […] The corneas were then sectioned, stained with hematoxylin/eosin and the slides were sent to a Board-certified Veterinary Pathologist for interpretation.

Dutch Belted rabbit eyes = experiment: GLP safety study, histopathology (Example 3); conditions: rarely noted in both glyceraldehyde and saline treated groups; Study Day 40
Source text: On Study Day 40, after 32 days of drops, the animals were sacrificed and the eyes were harvested according to the methods described in Experiment 2. The eyes were fixed in half-strength Karnovsky's fixative as described in Experiment 2 and sent to a Board Certified Veterinary Pathologist for interpretation.

[2] = system: eyes of myopic human subjects; experiment: Mild myopia study, group I: 50 IU hyaluronidase, corrective lenses, 3% glyceraldehyde (Example 9)
Source text: (§1) Given the favorable results obtained in Example 8, an additional study was undertaken to test the safety and efficacy of the method of the present invention using a larger group of subjects. In this study, a group of subjects were selected and randomly separated into three test groups to test the safety and efficacy of using hyaluronidase and a glyceraldehyde solution for treating subjects with sub-optimal visual acuity. Groups one and two received an intrastromal injection of hyaluronidase (50 and 500 IU, respectively), while group three received a control injection of saline.
(§2) Following a two week incubation period after the injection, the three groups were fitted with corrective lenses to optimize the visual acuity of the subjects. The corrective lenses were left in place for a period of time sufficient to alter the shape of the subjects' eyes so as to achieve an optimal visual acuity. This period of time was generally 2 days in length. Once an acceptable visual acuity was achieved, the subjects in the three groups received a topical 3% glyceraldehyde solution in the form of ophthalmic drops four times per day while wearing the corrective lenses. The glyceraldehyde treatment was generally administered for one month. Lens wear occurred from 8 to 12 hours during the day.
(§3) At the end of the treatment period both the lens wear and the glyceraldehyde solution administration was terminated. The general health and visual acuity of the subjects was monitored from 3 to 5 months following treatment termination.
Before beginning the experimental protocol, test subjects were examined initially to establish a baseline from which the future results of the treatment were compared. For each subject a medical history was taken and a detailed examination of the eyes was also performed. The eyes of each subject were tested to determine: refraction cell count, intraocular pressure (IOP), pachymetry, corneal topography and corneal elasticity. A slit-lamp examination was also performed to establish the health of the eye. Also, the presence of any general or ocular discomfort of the subjects was noted.
Following the establishment of a baseline reading, group 1 subjects were administered a single intrastromal injection of 50 IU hyaluronidase prior to the orthokeratology treatment. Following 14 days of incubation, the subjects were fitted with corrective contact lenses for overnight wear. Subjects wore the corrective lenses night and day for a period of two (2) to seven (7) days or until visual 20/20 visual acuity was achieved. Subjects achieving an acceptable visual acuity (approximately 20/20) received an application of the topical 3% glyceraldehyde solution ophthalmic drops four times per day (8:00, 12:00, 16:00, and 20:00) for a period of 1 month in conjunction with daytime lens wear for stabilization. Lens wear lasted for 8 to 12 hours per day. The subjects were examined periodically during the glyceraldehyde treatment to monitor changes in the health of the treated eyes.
(§4) At the end of the treatment period, the stabilizing lens were removed and the administration of the 3% glyceraldehyde solution was terminated. Following termination of the treatment, the subjects were examined immediately after treatment was terminated, once a week for the first four weeks after termination, and then monthly to measure changes in the visual acuity of the treated eyes. The health of the eye was also monitored. Sequelae characterized by the appearance or worsening of serious ocular symptoms or slit-lamp findings observed during these examinations was assessed. The proportions of subjects with such findings were analyzed.

[3] = system: eyes of myopic human subjects; experiment: Mild myopia study, group II: 500 IU hyaluronidase, corrective lenses, 3% glyceraldehyde (Example 9)
Source text: as §1, §2, §3
The subjects of group II were treated as those in group I in preparation for their participation in the study reported here. Before beginning the experimental protocol, test subjects were examined initially to establish a baseline from which the future results of the treatment were compared.
Following the establishment of a baseline reading, group II subjects were fitted with contact lenses and wore the corrective lenses at night for a period of two (2) to seven (7) days or until an acceptable visual acuity (approximately 20/20) was achieved. Group II test subjects received 500 IU of hyaluronidase by injection as compared to the 50 IU of group I. Two groups of subjects received 500 IU of hyaluronidase. The results obtained from the first group are shown in Table IIIA and the results from the second group are shown in Table IIIA and are identified in the table by the notation Gr. VI. There were no meaningful differences in the treatment protocols between these two groups. Subjects achieving an acceptable visual acuity received the topical 3% glyceraldehyde solution in the form of ophthalmic drops four times per day (08:00, 12:00, 16:00, and 20:00) for a period of 1 month in conjunction with daytime lens wear for stabilization. During this period, lens were occurred for approximately 8-12 hours per day and there was no nocturnal lens wear.
The subjects were examined periodically during the glyceraldehyde treatment to monitor changes in the health of the treated eyes.
as §4, with “examinations were” for “examinations was”

For `O=CC(O)CO` (centres unmarked) [glyceraldehyde], the “histopathologic differences between corneas of control and treated groups” value [1] was “no appreciable differences”, the “histopathology: focal increase in cellularity of corneal stroma, reduplication of Descemet's membrane, relation to treatment” value (Dutch Belted rabbit eyes) was “not associated with treatment with the drops” and the “overall effect on correction of visual acuity” value ([2]; glyceraldehyde treatment with injection of 50 IU of hyaluronidase) was “effective in facilitating the correction”. The “visual acuity at follow-up after end of treatment” value (from here on “visual acuity … of treatment”) ([2]; subject 001, 5-month follow up, baseline 20/80) was 20/40, the “visual acuity … of treatment” value ([2]; subject 002, 4-month follow-up, baseline 20/300) was 20/125 and the “visual acuity … of treatment” value ([2]; subject 007, 3-month follow-up, baseline 20/200) was 20/50. The “visual acuity … of treatment” value ([2]; subject 009, 3-month follow-up, baseline 20/200) was 20/63, the “visual acuity at follow-up” value ([2]; subject 010R, time not stated, baseline 20/80) was 20/20 and the “visual acuity … of treatment” value ([2]; subject 015, 3-month follow-up, baseline 20/80) was 20/25. The “visual acuity at follow-up” value ([2]; subject 022R, 3-week followup, baseline 20/62) was 20/80, the “visual acuity at follow-up” value ([2]; subject 024R, time not stated, baseline 20/100) was 20/40 and the “visual acuity at follow-up” value ([2]; subject 028, 2-month point, baseline 20/300) was 20/125. For the same compound, the “visual acuity at follow-up” value ([2]; subject 029, 2-month point, baseline 20/200) was 20/40, the “visual acuity at follow-up” value ([2]; subject 033, 2-month point, baseline 20/300) was 20/125 and the “UVA at follow-up after lens removal” value ([3]; Gr. VI subject 101, one month time point, baseline 20/200) was 20/60. For the same compound, the “UVA at follow-up after lens removal” value ([3]; Gr. VI subject 102, two month date, baseline 20/160) was 20/20, the “UVA at follow-up after lens removal” value ([3]; Gr. VI subject 103, two month date, baseline 20/160) was 20/50 and the “UVA at follow-up after lens removal” value ([3]; Gr. VI subject 104, one month time point, baseline 20/200) was 20/80. The “UVA at follow-up after lens removal” value ([3]; Gr. VI subject 105, two month date, baseline 20/200) was 20/80, the “UVA at follow-up after lens removal” value ([3]; Gr. VI subject 106, two month date, baseline 20/160) was 20/63 and the “UVA at follow-up after lens removal” value ([3]; Gr. VI subject 107, one month time point, baseline 20/60) was 20/20. For the same compound, the “overall effect on retention of orthokeratology benefits” value ([3]; combination of hyaluronidase (500 IU) and glyceraldehyde treatment) was “effective at retaining the benefits of orthokeratology”, the “UVA at follow-up after lens removal” value ([3]; subject 00S/031, three month point, baseline 20/200) was 20/50 and the “UVA at follow-up after lens removal” value ([3]; subject 004, four month point, baseline 20/160) was 20/50. For the same compound, the “UVA at follow-up after lens removal” value ([3]; subject 013, three month point, baseline 20/100) was 20/40, the “UVA at follow-up after lens removal” value ([3]; subject 017, three month point, baseline 20/50) was 20/25 and the “UVA at follow-up after lens removal” value ([3]; subject 018, three month point, baseline 20/80) was 20/25. For the same compound, the “UVA at follow-up after lens removal” value ([3]; subject 019, three month point, baseline 20/70) was 20/15, the “UVA at follow-up after lens removal” value ([3]; subject 023, two months, baseline 20/70) was 20/20 and the “UVA at follow-up after lens removal” value ([3]; subject 026, two months, baseline 20/50) was 20/25. The “UVA at follow-up after lens removal” value ([3]; subject 030, two months, baseline 20/300) was 20/100 and the “UVA at follow-up after lens removal” value ([3]; subject P10/008, three month point, baseline 20/400) was 20/80.
